± gives the expanded uncertainty stated by the source.

For data set [1] the following is noted: Liquid; for viscosity / mass density: 101 kPa; for mass density: Pycnometric method; for speed of sound: 101.33 kPa, Frequency=2 MHz, Linear variable-path acoustic interferometer.
A short description of data set [2]: xn = mol fraction of the nth substance listed. The note with it: 101 kPa, Liquid, x1 = 1; for speed of sound: Frequency=2 MHz, Linear variable-path acoustic interferometer; for mass density: Pycnometric method.

One may read the viscosity as the internal friction of a fluid under shear. In general, mass density refers to mass per unit of volume. By speed of sound is commonly meant the propagation velocity of pressure waves in the medium. With `CCCCCCCCCCO` [decan-1-ol], in data set [1] (303.15 K), the viscosity turned out to be 9.716 ± 0.37 mPa·s, the mass density was 822.87 ± 0.29 kg/m3 and the speed of sound is recorded as 1366 ± 3 m/s. Moreover, in data set [1] (313.15 K), the viscosity was determined as 6.82 ± 0.28 mPa·s, the mass density came out at 815.97 ± 0.31 kg/m3 and the speed of sound is on record as 1334 ± 3 m/s.
With `Cc1ccccc1` [toluene] + CCCCCCCO, in data set [2] (303.15 K), the speed of sound turned out to be 1289 ± 3 m/s, the mass density is reported as 856.62 ± 0.31 kg/m3 and the viscosity stood at 0.525 ± 0.029 mPa·s. In data set [2] (313.15 K), the speed of sound was 1256 ± 2 m/s, the mass density was 847.03 ± 0.32 kg/m3 and the viscosity is recorded as 0.471 ± 0.027 mPa·s.
For `Cc1ccccc1` [toluene] + CCCCCCCCO, in data set [2] (303.15 K), the speed of sound was 1289 ± 3 m/s, the mass density is 856.62 ± 0.31 kg/m3 and the viscosity was 0.525 ± 0.029 mPa·s. Besides, in data set [2] (313.15 K), the speed of sound is on record as 1256 ± 2 m/s, the mass density is on record as 847.03 ± 0.32 kg/m3 and the viscosity is given as 0.471 ± 0.027 mPa·s.
As for `CCCCCCCO` [heptan-1-ol], in data set [1] (303.15 K), the viscosity came to 5.048 ± 0.22 mPa·s, the mass density is 814.89 ± 0.29 kg/m3 and the speed of sound was 1313 ± 3 m/s. For the same compound, in data set [1] (313.15 K), the viscosity was 3.712 ± 0.17 mPa·s, the mass density was 807.68 ± 0.3 kg/m3 and the speed of sound stood at 1279 ± 3 m/s.
As to `Cc1ccccc1` [toluene], in data set [1] (303.15 K), the viscosity stood at 0.525 ± 0.029 mPa·s, the mass density stood at 856.62 ± 0.31 kg/m3 and the speed of sound was 1289 ± 3 m/s. Further, in data set [1] (313.15 K), the viscosity is reported as 0.471 ± 0.027 mPa·s, the mass density came to 847.03 ± 0.32 kg/m3 and the speed of sound is reported as 1256 ± 2 m/s.
In the case of `Cc1ccccc1` [toluene] + CCCCCCCCCCO, in data set [2] (303.15 K), the speed of sound is 1289 ± 3 m/s, the mass density stood at 856.62 ± 0.31 kg/m3 and the viscosity is 0.525 ± 0.029 mPa·s. In data set [2] (313.15 K), the speed of sound amounted to 1256 ± 2 m/s, the mass density is recorded as 847.03 ± 0.32 kg/m3 and the viscosity was 0.471 ± 0.027 mPa·s.
For the compound `CCCCCCCCO` [octan-1-ol], in data set [1] (303.15 K), the viscosity turned out to be 6.433 ± 0.26 mPa·s, the mass density is 818.38 ± 0.29 kg/m3 and the speed of sound is recorded as 1334 ± 3 m/s. In data set [1] (313.15 K), the viscosity was 4.603 ± 0.2 mPa·s, the mass density was found to be 811.05 ± 0.3 kg/m3 and the speed of sound stood at 1304 ± 3 m/s.

The values are drawn from the NIST ThermoML archive (doi:10.1021/je0602519).
